Measured values as given in patent US20050112573A1, “Method of detecting toxic substance” (priority 2001, published 2005).

Test system: yeast genes (level of expressed mRNA)
Assay: DNA chip analysis of expressed mRNA of yeast genes after 2 h culture with a toxic chemical substance
Format: cell-based, Saccharomyces cerevisiae S288C
Details: for The level of expressed mRNA in the presence of chemical substance/ (ratio to absence of chemical substance): stress protein genes, DNA chip
Procedure: Yeast (Saccharomyces cerevtisiae S288C (α SUC2mal mel gap2 CUP1)) were cultured at 25° C. on YPD medium (yeast extract 1%, polypepton 2%, glucose 2%). One of toxic chemical substances was added to the cell at logarithmic growth phase, and the cell was further cultured for two hours. Cell was cultured without any chemical substance in the same condition, and was used as control. Concentrations of the chemical substances were defined to inhibit the growth of the yeast but not lead to death.
After the completion of cultivation, the culture was centrifuged to collect the cells. To the cells, sodium acetate buffer (50 mM sodium acetate, 10 mM EDTA, 1% SDS) was added, and the mixture was shaken at 65° C. for five minutes, followed by returning to room temperature, and obtaining the supernatant, which procedure was repeated two times. To the supernatant, ½ amount of a solution of phenol/chloroform was added, and the mixture was centrifuged to give a supernatant, which was added with an equal amount of chloroform, and the mixture was centrifuged to give a supernatant. To the supernatant, an equal amount of isopropanol containing 0.3 M sodium acetate was added, and the mixture was allowed to stand at room temperature for 30 minutes, after which the mixture was centrifuged to give a sediment of the whole RNAs. Seventy % ethanol was added to the sediment, and the mixture was again centrifuged to give a sediment, which was then dried and dissolved in water. mRNA was isolated from the whole RNAs as followings. In view of the fact that a poly A chain is attached to the 3′ terminus of mRNA, a polynucleotide having a poly T structure which was immobilized on the surface of latex beads was used to trap the mRNA, and then the mRNA was washed and eluted with spine column (Oligotex-dT30<Super>mRNA Purification Kit, Takara). Reverse transcription of the mRNA was conducted with a reverse transcriptase (Super Script II Reverse Transcriptase; catalogue No. 18064-014, GibcoBRL) using fluorescence-labeled nucleotides to give cDNAs that were introduced with Cy3-dUTP or Cy5-dUTP during the reverse transcription.
The labeled cDNAs were dissolved in TE buffer (10 mM Tris-HCl/1 mM EDTA, pH8.0), and the solution was dropped on the DNA chip containing the whole genes of yeast (DNA Chip Research Inc. Japan) so that the cDNAs were hybridized on the DNA chip at 65° C. for over 12 hours. The fluoresces intensity of the DNA chip was read with a scanner, and the ratio relative to the fluorescence intensity resulting from the absence of chemical substance was estimated as the following, which is shown in Tables 1 to 9: [formula]
In the Tables, “Intensity” indicated in the rightmost column is a value of the level of expressed mRNA of each gene in control cells as divided by the average level of the expressions of the whole genes.

S=C([S-])NCCNC(=S)[S-].[Zn+2] [(11), zinc N,N′-ethylenebis(dithiocarbamate)]
The level of expressed mRNA in the presence of chemical substance/The level of expressed mRNA in the absence of chemical substance (yeast gene YIL123W): 1.2
The level of expressed mRNA in the presence of chemical substance/The level of expressed mRNA in the absence of chemical substance (yeast gene YIL140W): 0.9
The level of expressed mRNA in the presence of chemical substance/ (in its absence), gene YJL070C (yeast gene YJL070C, ratio of DNA chip fluorescence intensity to that without chemical substance): 1.3
The level of expressed mRNA in the presence of chemical substance/The level of expressed mRNA in the absence of chemical substance (yeast gene YJL073W): 0.5
The level of expressed mRNA in the presence of chemical substance/The level of expressed mRNA in the absence of chemical substance (yeast gene YJL089W): 0.6
The level of expressed mRNA in the presence of chemical substance/ (ratio to absence), gene YJL096W (yeast gene YJL096W, mitochondria-located protein genes, 2 h culture with chemical): 1.2
The level of expressed mRNA in the presence of chemical substance/The level of expressed mRNA in the absence of chemical substance (yeast gene YJL116C): 2.9
The level of expressed mRNA in the presence of chemical substance/ (ratio to absence of chemical substance) (yeast gene YJL158C): 1.9
The level of expressed mRNA in the presence of chemical substance/ (in its absence), gene YJL167W (yeast gene YJL167W, ratio of DNA chip fluorescence intensity to that without chemical substance): 1.2
The level of expressed mRNA in the presence of chemical substance/ (ratio to absence), gene YJL180C (yeast gene YJL180C, mitochondria-located protein genes, 2 h culture with chemical): 1.4
The level of expressed mRNA in the presence of chemical substance/ (in its absence), gene YJL216C (yeast gene YJL216C, ratio of DNA chip fluorescence intensity to that without chemical substance): 1.1
The level of expressed mRNA in the presence of chemical substance/The level of expressed mRNA in the absence of chemical substance (yeast gene YJR004C): 0.7
The level of expressed mRNA in the presence of chemical substance/The level of expressed mRNA in the absence of chemical substance (yeast gene YJR086W): 1.0
The level of expressed mRNA in the presence of chemical substance/ (ratio to absence of chemical substance) (yeast gene YJR090C): 0.4
The level of expressed mRNA in the presence of chemical substance/The level of expressed mRNA in the absence of chemical substance (yeast gene YKL008C): 1.5
The level of expressed mRNA in the presence of chemical substance/The level of expressed mRNA in the absence of chemical substance (yeast gene YKL013C): 1.1
The level of expressed mRNA in the presence of chemical substance/The level of expressed mRNA in the absence of chemical substance (yeast gene YKL039W): 1.0
The level of expressed mRNA in the presence of chemical substance/The level of expressed mRNA in the absence of chemical substance (yeast gene YKL041W): 1.2
The level of expressed mRNA in the presence of chemical substance/The level of expressed mRNA in the absence of chemical substance (yeast gene YKL096W): 3.5
The level of expressed mRNA in the presence of chemical substance/The level of expressed mRNA in the absence of chemical substance (yeast gene YKL139W): 1.4
The level of expressed mRNA in the presence of chemical substance/ (ratio to absence of chemical substance) (yeast gene YKL164C): 1.0
The level of expressed mRNA in the presence of chemical substance/The level of expressed mRNA in the absence of chemical substance (yeast gene YKL165C): 0.3
The level of expressed mRNA in the presence of chemical substance/The level of expressed mRNA in the absence of chemical substance (yeast gene YKL193C): 1.7
The level of expressed mRNA in the presence of chemical substance/ (in its absence), gene YKR009C (yeast gene YKR009C, ratio of DNA chip fluorescence intensity to that without chemical substance): 1.2
The level of expressed mRNA in the presence of chemical substance/ (in its absence), gene YKR034W (yeast gene YKR034W, ratio of DNA chip fluorescence intensity to that without chemical substance): 0.0
The level of expressed mRNA in the presence of chemical substance/ (ratio to absence of chemical substance) (yeast gene YKR053C): 0.5
The level of expressed mRNA in the presence of chemical substance/ in its absence, gene YKR058W (yeast gene YKR058W, energy system protein genes, 2 h culture with the chemical, ratio to control without chemical): 1.5
The level of expressed mRNA in the presence of chemical substance/ (in its absence), gene YLR006C (yeast gene YLR006C, ratio of DNA chip fluorescence intensity to that without chemical substance): 1.5
The level of expressed mRNA in the presence of chemical substance/ (ratio to absence of chemical substance) (yeast gene YLR006C): 1.5
The level of expressed mRNA in the presence of chemical substance/The level of expressed mRNA in the absence of chemical substance (yeast gene YLR120C): 1.2
The level of expressed mRNA in the presence of chemical substance/The level of expressed mRNA in the absence of chemical substance (yeast gene YLR136C): 1.2
The level of expressed mRNA in the presence of chemical substance/The level of expressed mRNA in the absence of chemical substance (yeast gene YLR178C): 3.7
The level of expressed mRNA in the presence of chemical substance/The level of expressed mRNA in the absence of chemical substance (yeast gene YLR250W): 1.4
The level of expressed mRNA in the presence of chemical substance/ in its absence, gene YLR295C (yeast gene YLR295C, energy system protein genes, 2 h culture with the chemical, ratio to control without chemical): 1.3
The level of expressed mRNA in the presence of chemical substance/ (ratio to absence), gene YLR295C (yeast gene YLR295C, mitochondria-located protein genes, 2 h culture with chemical): 1.3
The level of expressed mRNA in the presence of chemical substance/The level of expressed mRNA in the absence of chemical substance (yeast gene YLR327C): 5.0
The level of expressed mRNA in the presence of chemical substance/ (in its absence), gene YLR351C (yeast gene YLR351C, ratio of DNA chip fluorescence intensity to that without chemical substance): 1.1
The level of expressed mRNA in the presence of chemical substance/The level of expressed mRNA in the absence of chemical substance (yeast gene YLR356W): 3.1
The level of expressed mRNA in the presence of chemical substance/The level of expressed mRNA in the absence of chemical substance (yeast gene YLR362W): 1.5
The level of expressed mRNA in the presence of chemical substance/ (in its absence), gene YLR375W (yeast gene YLR375W, ratio of DNA chip fluorescence intensity to that without chemical substance): 1.6
The level of expressed mRNA in the presence of chemical substance/The level of expressed mRNA in the absence of chemical substance (yeast gene YLR391W): 1.4
The level of expressed mRNA in the presence of chemical substance/The level of expressed mRNA in the absence of chemical substance (yeast gene YLR429W): 0.9
The level of expressed mRNA in the presence of chemical substance/ in its absence, gene YML129C (yeast gene YML129C, energy system protein genes, 2 h culture with the chemical, ratio to control without chemical): 1.2
The level of expressed mRNA in the presence of chemical substance/ (ratio to absence), gene YML129C (yeast gene YML129C, mitochondria-located protein genes, 2 h culture with chemical): 1.2
The level of expressed mRNA in the presence of chemical substance/The level of expressed mRNA in the absence of chemical substance (yeast gene YMR004W): 2.5
The level of expressed mRNA in the presence of chemical substance/ (ratio to absence), gene YMR023C (yeast gene YMR023C, mitochondria-located protein genes, 2 h culture with chemical): 0.8
The level of expressed mRNA in the presence of chemical substance/The level of expressed mRNA in the absence of chemical substance (yeast gene YMR094W): 1.0
The level of expressed mRNA in the presence of chemical substance/The level of expressed mRNA in the absence of chemical substance (yeast gene YMR104C): 1.1
The level of expressed mRNA in the presence of chemical substance/ (ratio to absence of chemical substance) (yeast gene YMR186W): 1.1
The level of expressed mRNA in the presence of chemical substance/The level of expressed mRNA in the absence of chemical substance (yeast gene YMR219W): 1.5
The level of expressed mRNA in the presence of chemical substance/The level of expressed mRNA in the absence of chemical substance (yeast gene YMR226C): 1.4
The level of expressed mRNA in the presence of chemical substance/ in its absence, gene YMR267W (yeast gene YMR267W, energy system protein genes, 2 h culture with the chemical, ratio to control without chemical): 1.0
The level of expressed mRNA in the presence of chemical substance/ (ratio to absence), gene YMR267W (yeast gene YMR267W, mitochondria-located protein genes, 2 h culture with chemical): 1.0
The level of expressed mRNA in the presence of chemical substance/ in its absence, gene YMR267W (yeast gene YMR267W, ratio of DNA chip fluorescence intensity to that without chemical substance): 1.0
The level of expressed mRNA in the presence of chemical substance/The level of expressed mRNA in the absence of chemical substance (yeast gene YMR275C): 1.1
The level of expressed mRNA in the presence of chemical substance/The level of expressed mRNA in the absence of chemical substance (yeast gene YMR276W): 1.9
The level of expressed mRNA in the presence of chemical substance/ (in its absence), gene YMR278W (yeast gene YMR278W, ratio of DNA chip fluorescence intensity to that without chemical substance): 1.1
